Source: patent publication US20260250325A1, “Antiviral Polypeptide Membrane Fusion Inhibitor, and Preparation Method and Application Thereof” (priority 2025, published 2026)
Read-outs that look alike come from different tables or passages of the source. Where a SMILES comes first, the peptide text is derived from it.

How the values were obtained:
[1] = Cytotoxicity test in HEp-2 cells (CCK8 cell viability); format: cell-based; settings: human
Procedure: (§1) Human Epithelial Pharyngeal Carcinoma Cells (HEp-2) were from the American Type Culture Collection (ATCC), with a catalog number CCL-23. The cells were cultured in a DMEM culture solution in which 10% fetal bovine serum, 1% sodium pyruvate, 1% nonessential amino acids, 2 mM glutamine, 100 U/mL penicillin, and 100 μg/mL streptomycin were added. The RSV A long virus strain was from the ATCC, with a catalog number VR-26.
A cytotoxicity test and an antiviral test were performed in parallel. The HEp-2 cells were inoculated in the microplate at a density of 30,000 cells per well, and cultured overnight in the 37° C. incubator with 5% CO2. On the next day, the diluted test sample was added. The cell control (cells, without compound treatment) and a culture solution control (culture solution only, without cell or compound treatment) were set. A final concentration of DMSO in the culture solution was 0.5%. The cells were cultured for 1 day in the 37° C. incubator with 5% CO2. Cell viability was detected by using a cell viability detection kit CCK8.
(§2) The raw data for plaque counts and cell viability tests were used for analyzing the antiviral activity and cytotoxicity of the test samples, respectively. A calculation formula was shown as follows.
cell survival rate=(sample value-culture medium control average value)/(cell control average value-culture medium control average value)×100
(§3) Non-linear fitting analysis was performed on the inhibition rate of the sample by using GraphPad Prism (version 10), so as to calculate the IC50 and CC50 values for the sample.
CC50: in the in-vitro antiviral activity experiment, CC50 was used to measure the toxicity of the compound to be tested to the Hep-2 cells. To be precise, when the compound to be tested was at a specific concentration, 50% of the Hep-2 cells was caused to die, and this concentration was defined as the CC50. A fitting formula was log (inhibitor) vs. response-Variable slope (four parameters).

RSV A long virus strain = format: cell-based
Procedure: In this embodiment, an RSV-A long virus strain was used as an infection virus in the present disclosure. The anti-RSV activity of the synthesized polypeptide was determined through CPE detection.
The inhibitory activity of the compounds of Table 1-1-Table 1-5, positive polypeptide in Table 1-11, and positive control T-118 against the RSV-A long virus strain was detected.
as §1
This study used a plaque reduction experiment to detect the in-vitro activity of a test sample against the RSV A long virus strain. The test sample and a control compound were tested at 8 concentrations in duplicated wells. The HEp-2 cells were digested with trypsin and then diluted to a concentration of 300,000 cells per milliliter by using an experimental culture solution. The diluted cells were added to a 96-well cell test board, with 100 μL per well, corresponding to 30000 cells per well. The cells were cultured overnight in a 37° C. incubator with 5% CO2. On the second day, the test sample was diluted in an experimental culture medium at a fold ratio. The sample diluted at a fold ratio and an equal volume of virus (100 PFU per well) were well mixed and incubated at 37° C. in 5% CO2 for 1 h. Then, the culture solution in the 96-well cell test board was discarded, the sample virus mixed solution (200 μL) was added to the 96-well cell culture plate, and incubated at 37° C. in 5% CO2 for 2 hours. After 2 h, the sample virus mixed solution was discarded, and 200 μL of maintenance culture medium containing 0.8% CMC and the corresponding concentration of the test sample was added. A cell control (cells, without compound treatment or viral infection) and a viral control (cell infection virus, without compound treatment) were set. The cells were cultured for 1 day in the 37° C. incubator with 5% CO2. One day after viral infection, the culture medium was discarded, the cells were fixed with 4% paraformaldehyde, and then permeabilization was performed with 0.5% Triton X-100. After the plate was washed with DPBS, an RSV-specific antibody (RSV antibody, diluted 1:3000) was added and incubated at 37° C. for 1 h. Then, a secondary antibody (donkey anti-goat IgG, diluted 1:500) and incubated at 37° C. for 1 h. The secondary antibody was discarded, a TrueBlue solution was added, dyeing was performed for 10 min; and the plate was washed with running water and then air-dried, and the number of spots in each well was counted by using a microplate imaging counter. Raw data was used for calculating the antiviral activity of the samples.
as §2
% inhibition rate=100−(sample value-cell control average value)/(virus control average value-cell control average value)×100%
as §3
IC50: in an in-vitro antiviral activity experiment, IC50 represented an inhibition ability indicator of a compound to be tested against the Hep-2 cells infected by the RSV A long virus strain.

[2] = HEp-2 cells, CCK8, 1 day, read-out: CC50
[3] = RSV A long virus strain, HEp-2 cells, plaque reduction, 1 day, read-out: IC50

Structure (SMILES) | CC50 at 1 day [1] [µM] | IC50 (RSV A long virus strain) [µM] | CC50 at 1 day [1, 2] [µM] | IC50 (RSV A long virus strain; [3]) [µM]
CC[C@H](C)[C@H](NC(=O)[C@H](CCCCN)NC(=O)[C@H](CC(C)C)NC(=O)[C@H](CC(C)C)NC(=O)[C@H](CO)NC(=O)[C@H](C)NC(=O)[C@H](CC(=O)O)NC(=O)[C@H](Cc1ccccc1)NC(C)=O)C(=O)N[C@@H](CCC(=O)O)C(=O)N[C@@H](CCC(=O)O)C(=O)N[C@@H](CCC(=O)O)C(=O)N[C@@H](CCCCN)C(=O)N[C@@H](CCCCN)C(=O)N[C@@H](CCCCN)C(=O)N[C@H](C(=O)N[C@@H](CCC(=O)O)C(=O)N[C@@H](CCC(=O)O)C(=O)N[C@@H](CC(C)C)C(=O)N[C@@H](CC(C)C)C(=O)N[C@@H](CCCCN)C(=O)N[C@@H](CC(C)C)C(=O)N[C@@H](Cc1c[nH]cn1)C(=O)N[C@@H](CC(N)=O)C(=O)N[C@@H](CCC(=O)O)C(=O)N[C@@H](CO)C(=O)N[C@@H](CC(=O)O)C(=O)N[C@@H](CCCCN)C(=O)N[C@@H](CCCCN)C(=O)N[C@@H](CC(C)C)C(=O)N[C@@H](CCC(=O)O)C(=O)N[C@@H](CCC(=O)O)C(=O)N[C@H](C(N)=O)C(C)C)[C@@H](C)CC [Compound 4] (Ac-FDASLLKIEEEKKKIEELLKLHNESDKKLEEV-NH2) | > 8 | > 8 | – | –
CC[C@H](C)[C@H](NC(=O)[C@H](CCCCN)NC(=O)[C@H](CCCCN)NC(=O)[C@H](CC(C)C)NC(=O)[C@H](CO)NC(=O)[C@H](CCC(=O)O)NC(=O)[C@H](CCC(=O)O)NC(=O)[C@@H](NC(=O)[C@H](CCCCN)NC(=O)[C@H](CCCCN)NC(=O)[C@H](CC(N)=O)NC(=O)[C@@H](NC(=O)[C@H](CCC(=O)O)NC(=O)[C@H](CCC(=O)O)NC(=O)[C@@H](NC(=O)[C@H](CCCCN)NC(=O)[C@H](CCCCN)NC(=O)[C@H](CC(=O)O)NC(=O)[C@H](Cc1ccccc1)NC(=O)[C@H](CCC(=O)O)NC(=O)[C@H](CC(=O)O)NC(=O)[C@H](Cc1c[nH]c2ccccc12)NC(C)=O)[C@@H](C)CC)C(C)C)[C@@H](C)CC)C(=O)N[C@@H](CCC(=O)O)C(=O)N[C@@H](CCC(=O)O)C(=O)N[C@@H](CO)C(=O)N[C@@H](CC(=O)O)C(=O)N[C@@H](CCCCN)C(=O)N[C@@H](CCCCN)C(=O)N[C@@H](CC(C)C)C(=O)N[C@@H](CCC(=O)O)C(=O)N[C@@H](CCC(=O)O)C(=O)N[C@H](C(=O)N[C@@H](CC(N)=O)C(=O)N[C@@H](CCCCN)C(=O)N[C@@H](CCCCN)C(=O)N[C@@H](CC(C)C)C(N)=O)C(C)C [Compound 5] (Ac-WDEFDKKIEEVNKKIEESLKKIEESDKKLEEVNKKL-NH2) | – | – | > 8 | 1.12
CC[C@H](C)[C@H](NC(=O)[C@H](CO)NC(=O)[C@H](CCC(=O)O)NC(=O)[C@H](CC(N)=O)NC(=O)[C@@H](NC(=O)[C@H](CCCCN)NC(=O)[C@H](CO)NC(=O)[C@H](CO)NC(=O)[C@H](C)NC(=O)[C@H](CC(=O)O)NC(=O)[C@H](CC(N)=O)NC(=O)[C@@H](NC(=O)[C@H](CCC(=O)O)NC(=O)[C@H](CC(C)C)NC(=O)[C@H](CCCNC(=N)N)NC(=O)[C@H](Cc1ccccc1)NC(=O)[C@H](C)NC(=O)[C@H](CC(=O)O)NC(=O)[C@H](C)NC(C)=O)C(C)C)[C@@H](C)CC)C(=O)N[C@@H](CCC(=O)O)C(=O)N[C@@H](CCC(=O)O)C(=O)N[C@@H](CO)C(=O)N[C@@H](CC(C)C)C(=O)N[C@@H](CC(C)C)C(=O)N[C@@H](CO)C(=O)N[C@@H](CC(C)C)C(=O)N[C@@H](CCC(=O)O)C(=O)N[C@@H](CCCCN)C(=O)N[C@@H](CC(C)C)C(=O)N[C@@H](Cc1c[nH]cn1)C(=O)N[C@@H](CC(N)=O)C(=O)N[C@H](C(=O)N[C@@H](CC(N)=O)C(=O)N[C@@H](C)C(=O)N[C@H](C(=O)N[C@@H](C)C(N)=O)[C@@H](C)O)C(C)C [Compound 6] (Ac-ADAFRLEVNDASSKINESIEESLLSLEKLHNVNATA-NH2) | > 8 | > 8 | – | –
CC[C@H](C)[C@H](NC(=O)[C@H](Cc1ccccc1)NC(=O)[C@H](C)NC(=O)[C@H](CC(=O)O)NC(=O)[C@H](Cc1ccccc1)NC(C)=O)C(=O)N[C@@H](CCC(N)=O)C(=O)N[C@@H](CCC(=O)O)C(=O)N[C@H](C(=O)N[C@@H](CC(N)=O)C(=O)N[C@H](C(=O)N[C@@H](CC(N)=O)C(=O)N[C@@H](CCC(=O)O)C(=O)N[C@@H](CC(=O)O)C(=O)N[C@@H](CCC(N)=O)C(=O)N[C@@H](CO)C(=O)N[C@@H](CC(C)C)C(=O)N[C@@H](CCC(=O)O)C(=O)N[C@@H](CCC(N)=O)C(=O)N[C@@H](CO)C(=O)N[C@@H](CC(=O)O)C(=O)N[C@@H](CCC(=O)O)C(=O)N[C@@H](CC(C)C)C(=O)N[C@@H](CC(C)C)C(=O)N[C@@H](CC(C)C)C(=O)N[C@@H](CCC(=O)O)C(=O)N[C@@H](CC(C)C)C(=O)N[C@@H](Cc1c[nH]cn1)C(=O)N[C@@H](CC(C)C)C(=O)N[C@@H](CC(C)C)C(=O)N[C@@H](Cc1c[nH]cn1)C(=O)N[C@@H](CO)C(=O)N[C@@H](CC(C)C)C(=O)N[C@@H](CC(C)C)C(=O)N[C@@H](Cc1c[nH]cn1)C(N)=O)C(C)C)[C@@H](C)CC [Compound 7] (Ac-FDAFIQEINVNEDQSLEQSDELLLELHLLHSLLH-NH2) | > 8 | > 8 | – | –
CC[C@H](C)[C@H](NC(=O)[C@H](CCC(=O)O)NC(=O)[C@H](CCC(=O)O)NC(=O)[C@H](CC(C)C)NC(=O)[C@H](CO)NC(=O)[C@H](CCC(=O)O)NC(=O)[C@H](CCC(=O)O)NC(=O)[C@@H](NC(=O)[C@H](CCCCN)NC(=O)[C@H](CCC(=O)O)NC(=O)[C@H](CC(N)=O)NC(=O)[C@@H](NC(=O)[C@H](CCC(N)=O)NC(=O)[C@H](CC(N)=O)NC(=O)[C@@H](NC(=O)[C@H](CCCCN)NC(=O)[C@H](CCC(N)=O)NC(=O)[C@H](CC(N)=O)NC(=O)[C@H](Cc1ccccc1)NC(=O)[C@H](CCC(=O)O)NC(=O)[C@H](C)NC(=O)[C@H](Cc1ccccc1)NC(C)=O)[C@@H](C)CC)C(C)C)[C@@H](C)CC)C(=O)N[C@@H](CCCNC(=N)N)C(=O)N[C@@H](CCCCN)C(=O)N[C@@H](CO)C(=O)N[C@@H](CC(=O)O)C(=O)N[C@@H](CCC(=O)O)C(=O)N[C@@H](CCC(=O)O)C(=O)N[C@@H](CC(C)C)C(=O)N[C@@H](Cc1c[nH]cn1)C(=O)N[C@@H](CC(N)=O)C(=O)N[C@H](C(=O)N[C@@H](CC(N)=O)C(=O)N[C@@H](C)C(=O)N[C@H](C(=O)N[C@H](C(N)=O)[C@@H](C)O)[C@@H](C)O)C(C)C [Compound 8] (Ac-FAEFNQKINQVNEKIEESLEEIRKSDEELHNVNATT-NH2) | – | – | > 8 | 3.77
